# In patent publication US20080153908A1, “Method of Treating Mucin Deficiency with an Active Pharmaceutical and Related Composition” (priority 2006, published 2008):
# Tests used:
# rat colon cells = conditions: isolated vascularly perfused rat colon; cited from earlier work
# [1] = tested on: mucin content of tear film; experiment: Stimulation of mucin production: tear film mucin content in patients with mucin deficiency; assay type: in vivo, human; conditions: 0.5 wt. % solution in artificial tear solution, four-times a day for four days; control receives artificial tear solution
# Description: A 0.5 wt. % solution of sodium butyrate in artificial tear solution is administered to one of a […] that suffer from mucin deficiency. The patients receiving butyrate drops belong to the study group. The patients in the control group receive artificial tear solution. Both groups receive treatment four-times a day for four days. Following treatment, tear film samples are collected and tested to quantify mucin content.
# colonic mucin production = conditions: about 0.1 millimolar sodium butyrate; tissue harvested from colonic cancer patients; cited from earlier work
SMILES,stimulation of mucin secretion of rat colon cells (rat colon cells),concentration of mucin in tear film samples versus control group [1],increase in colonic mucin production compared to a control group (colonic mucin production)
CC(=O)O [acetate],can stimulate the mucin secretion,,
CCC(=O)O [propionate],can stimulate the mucin secretion,,
CCCC(=O)[O-].[Na+] [sodium butyrate],,higher concentration of mucin,almost five fold increase
